In patent US4544660A, “Pharmaceutically active tropanes” (Beecham Group p.l.c., priority 1978, dated 1985):

Experiments:
Assay type in all cases: in vivo
Dopamine Receptor [1] = test: Inhibition of apomorphine induced stereotype behaviour in the rat; details: s.c., apomorphine induced, complete inhibition, IA(x) = inactive at dose in brackets
Excerpt: (§1) I. Dopamine Receptor Blocking Activity in the Central Nervous System
(a) Inhibition of apomorphine induced stereotype behaviour in the rat
(method of Ernst (1967), Psychopharmacologia (Berl.) 10 316-323).

Dopamine Receptor [2] = test: Inhibition of apomorphine induced climbing in the mouse; details: p.o., apomorphine 1 mg/kg s.c., complete inhibition
Method: as §1
(b) Inhibition of apomorphine induced climbing in the mouse
The test is based on that described by Protais, P., Constantin, J. and Schwartz J.C. (1976), Psychopharmacology, 50, 1-6.
Apomorphine 1 mg/kg s.c. induces mice to climb the wall of a wire cage (inverted food hopper--11×7.5×18 cm high). Mice acclimatised in their home cages in groups of 5 are placed under the hoppers immediately after the injection of apomorphine 1 mg/kg s.c. At 10,20 and 30 minutes after injection climbing behaviour is scored. The mice are observed for 30 seconds and scored according to the position they spend the majority of time in, score 0--four paws on floor of cage; score 1--fore paws only on walls; score 2--all paws on wall of cage. The scores at all 3 times and for each mouse are summed and mice drug treated orally compared to mice receiving apomorphine only. A saline only treated group is also included and any score, generally <5% of maximum taken into account.

vomiting response = test: Anti-emetic activity in the dog (apomorphine induced vomiting); details: Canis lupus familiaris, 30 min before apomorphine HCl 0.1 mg/kg s.c.; for ED100: s.c., complete inhibition, read-out: II Anti-Emetic Activity Dose, Complete Inhibition
Method: II. Anti-emetic activity in the dog
Compounds were administered subcutaneously 30 minutes prior to administration of a standard dose of apomorphine HCl (0.1 mg/kg subcutaneously) and the vomiting response compared to that obtained when the same animals were dosed with apomorphine HCl and vehicle only.

intragastric pressure = test: Increase in intragastric pressure in the rat; parameters: III(a) Increase in Intragastric Pressure Dose (minimum dose for activity): unit not given here; details: s.c., 40 minute period after administration; for minimal effective dose: sc, 40 min, read-out: III(a) Increase in Intragastric Pressure Dose (minimum dose for activity)
Method: (a) Increase in intragastric pressure in the rat
Intragastric pressure changes were recorded from previously starved conscious but restrained rats using a saline filled catheter inserted into the lumen of the stomach via a permanent gastric fistula. The catheter was connected to a physiological pressure transducer and pressure changes recorded on a hot wire pen recorder. In each animal a pre-dose period of 40 minutes was allowed to obtain a measure of spontaneous activity. An index of activity was obtained by measuring the average height of pressure waves during 10 minute periods. Values for 4 such periods were obtained during assessment of spontaneous activity and for the 40 minute period after the subcutaneous administration of the compounds. Students `t` test was applied to the difference in average values obtained for spontaneous and post-compound activity.

gastric emptying = test: Increase in gastric emptying: reversal of apomorphine induced delay in gastric emptying in the rat; parameters: key to III(b) Increase in Gastric Emptying: IA: inactive at the dose in the brackets, mg/Kg s.c; details: 10 mg/kg s.c.; for III(b) Increase in Gastric Emptying: apomorphine HCl 5 mg/kg s.c. induced delay
Method: (b) Increase in gastric emptying: reversal of apomorphine induced delay in gastric emptying in the rat
Rats equipped with chromic gastric fistulae were used and it was through this that 5 ml of a test meal (5 ml phosphate buffer at pH 9) was administered and recovered. The % recovery of the standard meal after remaining in the stomach for 10 minutes was taken as an index of gastric emptying. Delay in gastric emptying was induced by the administration of apomorphine HCl (5 mg/kg subcutaneously) which was given 15 minutes prior to the subcutaneous administration of the compound. The % recoveries of the test meal were determined at 15-25 and 45-55 minutes post-dosing with the compound and compared with vehicle only dosed animals set up simultaneously. Six animals were used for each group.

In the case of `CCN1[C@@H]2CC[C@H]1C[C@H](NC(=O)c1cc(Cl)c(N)cc1OC)C2` [Compound 23, 4-amino-5-chloro-2-methoxy-N-(3'β-[8'-ethyl-8'-azabicyclo[3.2.1]octyl])benzamide], the “I(a) Dose Inhibiting Stereotype Behaviour (dose for complete inhibition)” value (Dopamine Receptor [1]) is reported as “IA(25)”, the “I(b) Anti-Climbing Activity Dose, Complete Inhibition” value (Dopamine Receptor [2]) is reported as “IA (inactive at 10 mg/Kg p.o.)” and the ED100 (vomiting response) is reported as 1.6 mg/kg. For the same compound, the minimal effective dose (intragastric pressure) was 1 to 10 mg/kg and the “III(b) Increase in Gastric Emptying” value (gastric emptying) was 25%.

In the case of `CCCN1[C@@H]2CC[C@H]1C[C@H](NC(=O)c1cc(Cl)c(N)cc1OC)C2` [Compound 24, 4-amino-5-chloro-2-methoxy-N-(3'β-[8'-n-propyl-8'-azabicyclo[3.2.1]-octyl])benzamide], the “I(a) Dose Inhibiting Stereotype Behaviour (dose for complete inhibition)” value (Dopamine Receptor [1]) is reported as “IA(25)”, the “I(b) Anti-Climbing Activity Dose, Complete Inhibition” value (Dopamine Receptor [2]) is reported as “IA (inactive at 10 mg/Kg p.o.)” and the ED100 (vomiting response) is reported as 0.4 mg/kg. For the same compound, the minimal effective dose (intragastric pressure) was 5 to 10 mg/kg and the “III(b) Increase in Gastric Emptying” value (gastric emptying) was “IA(25)”.

For `COc1cc(N)c(Cl)cc1C(=O)N[C@@H]1C[C@H]2CC[C@@H](C1)N2CC(C)C` [Compound 28, 4-amino-5-chloro-2-methoxy-N-(3'β-[8'-isobutyl-8'-azabicyclo-[3.2.1]-octyl])-benzamide], the ED100 (vomiting response) was 0.2 mg/kg and the minimal effective dose (intragastric pressure) was 5 mg/kg.

With `COc1cc(N)c(Cl)cc1C(=O)N[C@H]1C[C@H]2CCC[C@@H](C1)N2Cc1ccccc1` [Compound 11, 4-amino-5-chloro-2-methoxy-N-(3'α-[9'-benzyl-9'-azabicyclo-[3,3,1]-nonyl])-benzamide] the “I(a) Dose Inhibiting Stereotype Behaviour (dose for complete inhibition)” value (Dopamine Receptor [1]) was “IA(50)”, the “I(b) Anti-Climbing Activity Dose, Complete Inhibition” value (Dopamine Receptor [2]) was “IA (inactive at 10 mg/Kg p.o.)” and the minimal effective dose (intragastric pressure) was 1 mg/kg.

For `COc1ccc(S(N)(=O)=O)cc1C(=O)N[C@@H]1C[C@H]2CC[C@@H](C1)N2Cc1ccccc1` [Compound 8, 5-Sulphamoyl-2-methoxy-N-(3'β-[8'-benzyl]-8'-azabicyclo-[3.2.1]-octyl)-benzamide], the “I(b) Anti-Climbing Activity Dose, Complete Inhibition” value (Dopamine Receptor [2]) was “IA (inactive at 10 mg/Kg p.o.)”, the ED100 (vomiting response) was 0.1 mg/kg and the “III(a) Increase in Intragastric Pressure Dose (minimum dose for activity)” value (intragastric pressure) was “IA(5)”.

`COc1cc(N)c(Cl)cc1C(=O)N[C@@H]1C[C@H]2CC[C@@H](C1)N2C1CCCCC1` [Compound 31, 4-amino-5-chloro-2-methoxy-N-(3'β-[8'-cyclohexyl-8-azabicyclo[3.2.1]octyl])benzamide] was tested, and the “I(b) Anti-Climbing Activity Dose, Complete Inhibition” value (Dopamine Receptor [2]) was “IA (inactive at 10 mg/Kg p.o.)” and the ED100 (vomiting response) was 0.25 mg/kg.

For `COc1ccc(CN2[C@@H]3CC[C@H]2C[C@H](NC(=O)c2cc(Cl)c(N)cc2OC)C3)cc1` [Compound 14, 4amino-5-chloro-2-methoxy-N-(3β-[8'[4"methoxybenzyl]-8'-azabicyclo[3.2.1]octyl])-benzamide], the “I(b) Anti-Climbing Activity Dose, Complete Inhibition” value (Dopamine Receptor [2]) was 10 mg/kg and the ED100 (vomiting response) was 0.1 mg/kg.

In the case of `COc1cc(N)c(Cl)cc1C(=O)N[C@@H]1C[C@H]2CC[C@@H](C1)N2C(C)C` [Compound 25, 4-amino-5-chloro-2-methoxy-N-(3'β-[8'-iso-propyl-8'-azabicyclo[3.2.1]-octyl])benzamide], the “I(a) Dose Inhibiting Stereotype Behaviour (dose for complete inhibition)” value (Dopamine Receptor [1]) is reported as “IA(25)”, the “I(b) Anti-Climbing Activity Dose, Complete Inhibition” value (Dopamine Receptor [2]) is reported as “IA (inactive at 10 mg/Kg p.o.)” and the ED50 (vomiting response; sc, ED50, read-out: II Anti-Emetic Activity Dose, ED50) is reported as 0.8 mg/kg. For the same compound, the minimal effective dose (intragastric pressure) was 5 mg/kg and the “III(b) Increase in Gastric Emptying” value (gastric emptying) was “IA”.

`COc1cc(N)c(Cl)cc1C(=O)N(C)[C@H]1C[C@H]2CC[C@@H](C1)N2Cc1ccccc1` [Compound 6, 4-Amino-5-chloro-2-methoxy-N-methyl-N-(3'α-[8'-benzyl-8'-azabicyclo[3.2.1]octyl])benzamide] was tested, and the “I(a) Dose Inhibiting Stereotype Behaviour (dose for complete inhibition)” value (Dopamine Receptor [1]) was “IA(50)”, the “I(b) Anti-Climbing Activity Dose, Complete Inhibition” value (Dopamine Receptor [2]) was “IA (inactive at 10 mg/Kg p.o.)” and the minimal effective dose (intragastric pressure) was 10 mg/kg. The “III(b) Increase in Gastric Emptying” value (gastric emptying) was “IA(50)”.

In the case of `COc1ccccc1C(=O)N[C@@H]1C[C@H]2CC[C@@H](C1)N2Cc1ccccc1` [Compound 9, 2-Methoxy-N-(3'β-[8'-benzyl-8'-azabicyclo-[3.2.1]-octyl])-benzamide], the “I(b) Anti-Climbing Activity Dose, Complete Inhibition” value (Dopamine Receptor [2]) is reported as 10 mg/kg and the ED100 (vomiting response) is reported as 0.1 mg/kg.

`COc1cc(N)c(Cl)cc1C(=O)N[C@H]1C[C@H]2CC[C@@H](C1)N2Cc1ccccc1` [Compound 3, 4-amino-5-chloro-2-methoxy-N-(3',α-[8'-benzyl]nortropyl)benzamide] was tested, and the “I(a) Dose Inhibiting Stereotype Behaviour (dose for complete inhibition)” value (Dopamine Receptor [1]) was 50 mg/kg and the ED100 (vomiting response) was 0.05 mg/kg.

Compound `C=CCN1[C@@H]2CC[C@H]1C[C@H](NC(=O)c1cc(Cl)c(N)cc1OC)C2` [Compound 32, 4-amino-5-chloro-2-methoxy-N-(3'β-[8'-ally-8-azabicyclo[3.2.1]octyl])benzamide] has an ED100 (vomiting response) of 0.2 mg/kg.

`COc1cc(N)c(Cl)cc1C(=O)N[C@@H]1C[C@H]2CC[C@@H](C1)N2Cc1ccc(Cl)cc1` [Compound 16, 4amino-5-chloro-2-methoxy-N-(3β-[8'[4"chlorobenzyl]-8'-azabicyclo[3.2.1]octyl])-benzamide] was tested, and the “I(b) Anti-Climbing Activity Dose, Complete Inhibition” value (Dopamine Receptor [2]) was 2 mg/kg.

`COc1cc(N)c(Cl)cc1C(=O)N[C@@H]1C[C@H]2CC[C@@H](C1)[N+]2(C)Cc1ccccc1` (stereo partly drawn) [Compound 10, 4-Amino-5-chloro-2-methoxy-N-(3'β-[8'-benzyl]-8'-azabicyclo[3.2.1]octyl)-benzamide methobromide] was tested, and the “I(b) Anti-Climbing Activity Dose, Complete Inhibition” value (Dopamine Receptor [2]) was “IA(2)” and the minimal effective dose (intragastric pressure) was 0.25 mg/kg.

In the case of `COc1cc(N)c(Cl)cc1C(=O)N[C@H]1C[C@H]2CCC[C@@H](C1)N2C` [Compound 21, 4-amino-5-chloro-2-methoxy-N-(3'α-[9'-methyl-9'-azabicyclo[3.3.1]nonyl])benzamide], the “I(a) Dose Inhibiting Stereotype Behaviour (dose for complete inhibition)” value (Dopamine Receptor [1]) is reported as “IA(50)”, the “I(b) Anti-Climbing Activity Dose, Complete Inhibition” value (Dopamine Receptor [2]) is reported as 10 mg/kg and the minimal effective dose (intragastric pressure) is reported as 5 mg/kg.

For `CCOc1ccc(CN2[C@@H]3CC[C@H]2C[C@H](NC(=O)c2cc(Cl)c(N)cc2OC)C3)cc1` [Compound 15, 4amino-5-chloro-2-methoxy-N-(3β-[8'[4"ethoxybenzyl]-8'-azabicyclo[3.2.1]octyl])-benzamide], the “I(b) Anti-Climbing Activity Dose, Complete Inhibition” value (Dopamine Receptor [2]) was 10 mg/kg and the ED100 (vomiting response) was 0.1 mg/kg.

In the case of `COc1cc(N)c(Cl)cc1C(=O)N[C@@H]1C[C@H]2CCC[C@@H](C1)N2C` [Compound 22, 4-amino-5-chloro-2-methoxy-N-(3'β-[9'-methyl-9'-azabicyclo[3.3.1]-nonyl])-benzamide], the “I(a) Dose Inhibiting Stereotype Behaviour (dose for complete inhibition)” value (Dopamine Receptor [1]) is reported as “IA(25)”, the “I(b) Anti-Climbing Activity Dose, Complete Inhibition” value (Dopamine Receptor [2]) is reported as “IA (inactive at 10 mg/Kg p.o.)” and the minimal effective dose (intragastric pressure) is reported as 1 mg/kg. The “III(b) Increase in Gastric Emptying” value (gastric emptying) was “IA(25)”.

In the case of `COc1cc(N)c(Cl)cc1C(=O)NC1CC2CCC(C1)N2Cc1ccccc1` (stereo not drawn) [Compound 2, 4-amino-5-chloro-2-methoxy-N-(3'α, 8-[8'-benzyl]8-azabicyclo[3,2,1]octyl)benzamide], the “I(a) Dose Inhibiting Stereotype Behaviour (dose for complete inhibition)” value (Dopamine Receptor [1]) is reported as 10 mg/kg, the ED100 (vomiting response) is reported as 0.0025 mg/kg and the “% Recovery of test meal, mean ± S.E. of mean, 15-25 mins.” value (gastric emptying; 15-25 mins post dosing, apomorphine, printed with **, apomorphine + vehicle 72.4 ± 5.1) is reported as 37.4 ± 6.7%. For the same compound, the “% Recovery of test meal, mean ± S.E. of mean, 45-55 mins.” value (gastric emptying; 45-55 mins post dosing, apomorphine, printed with ***, apomorphine + vehicle 60.7 ± 7.3) was 18.3 ± 1.1%.
